For data set [1], the system named is RAW264.7. Briefly: Antiinflammatory activity in mouse RAW264.7 cells assessed as inhibition of LPS-induced NO production at 1 uM. It counts as functional.
Data set [2] deals with RAW264.7. Nature of the data set: Antiinflammatory activity in mouse RAW264.7 cells assessed as inhibition of LPS-induced NO production at 10 uM. It counts as functional.
Data set [3] in a line: Cytotoxicity against mouse RAW264.7 cells assessed as cell proliferation at 1 uM. It counts as cell-based. Particulars: read-out: Activity.
Data set [4] can be described thus: Cytotoxicity against mouse RAW264.7 cells assessed as cell proliferation at 10 uM. Particulars: read-out: Activity. It counts as cell-based.
In data set [5] the test system is RAW264.7. Nature of the data set: Antiinflammatory activity in mouse RAW264.7 cells assessed as inhibition of LPS-induced NO production. It counts as functional, cell-based.

The text below walks through data of ChEMBL document CHEMBL3352224, “Synthesis and biological evaluation of piperlongumine derivatives as potent anti-inflammatory agents” (Bioorg Med Chem Lett, 2014).

Structures are written as SMILES.

Usually inhibition stands for the drop in the measured response relative to a control, in per cent. A word on the IC50: it is the concentration at which inhibition is half-maximal. For the compound `COc1cc(/C=C/C(=O)N2CCCCC2=O)cc(OC)c1OC`, in the data set on RAW264.7 [1], the inhibition at 1 µM is 1%. Further, the inhibition at 10 µM with RAW264.7 [2] stood at 46%. Besides, the viability at 1 µM in data set [3] turned out to be 107%. The viability at 10 µM in data set [4] came to 101%. Moreover, the half-inhibitory concentration (IC50) in the data set with RAW264.7 [5] is 14 µM.
`COc1cc(/C=C/C(=O)N2CCCC2=O)cc(OC)c1OC`: the inhibition at 1 µM in the data set with RAW264.7 [1] was determined as 1%. Moreover, the inhibition at 10 µM in the data set with RAW264.7 [2] turned out to be 28%. Also, the viability at 1 µM in data set [3] is 105%. Besides, the viability at 10 µM in data set [4] came to 102%. For the same compound, the half-maximal inhibitory concentration (IC50) with RAW264.7 [5] is 80 µM.
For the compound `CCC(=O)NC(=O)/C=C/c1cc(OC)c(OC)c(OC)c1`, the inhibition at 1 µM in the data set on RAW264.7 [1] is -1%. The inhibition at 10 µM in the data set with RAW264.7 [2] amounted to 16%. In addition, the viability at 1 µM in data set [3] came to 97%. Besides, the viability at 10 µM in data set [4] was 103%. In the data set on RAW264.7 [5], the IC50 was 64 µM.
Regarding `COc1cc(/C=C/C(=O)N2CCC2=O)cc(OC)c1OC`, in the data set on RAW264.7 [1], the inhibition at 1 µM is 1%. In addition, the inhibition at 10 µM in the data set with RAW264.7 [2] is 22%. The viability at 1 µM in data set [3] came to 97%. Further, the viability at 10 µM in data set [4] was 92%. The IC50 in the data set on RAW264.7 [5] worked out at 64 µM.
Take `COc1cc(/C=C/C(=O)NC(C)=O)cc(OC)c1OC`: in the data set with RAW264.7 [1], the inhibition at 1 µM was -1%. The inhibition at 10 µM in the data set on RAW264.7 [2] amounted to 16%. In addition, the viability at 1 µM in data set [3] came to 104%. In data set [4], the viability at 10 µM came to 104%. Besides, the IC50 in the data set with RAW264.7 [5] worked out at 341 µM.
With `COc1cc(/C=C/C(=O)N2CCC=CC2=O)cc(OC)c1OC` [PIPLARTINE], the inhibition at 1 µM in the data set on RAW264.7 [1] was 11%. The inhibition at 10 µM in the data set with RAW264.7 [2] came out at 91%. For the same compound, the viability at 1 µM in data set [3] was found to be 115%. Moreover, the viability at 10 µM in data set [4] is 77%. Moreover, the IC50 in the data set on RAW264.7 [5] came to 3 µM.
